# Molecular target: T1, Human autotaxin enzyme (Homo sapiens, UniProt Q13822)
# T1 construct: purchased R&D System
# Assay: Evaluation of autotaxin inhibitor, Method C (Test Example 3): 18:0 Lyso PC, choline assay, Resorufin fluorescence
# Assay type: biochemical
# Settings: Assay Method C (Test Example 3), human autotaxin, 18:0 Lyso PC substrate; read-out: Inhibitory Activity (autotaxin enzyme inhibitory activity, IC50 class)
# Procedure: (Method C) Evaluation of Autotaxin Inhibitor
# Solution B containing 100 mM Tris-HCl buffer (pH7.5), 150 mM NaCl, 5 mM MgCl2 and 0.05% Triton X-100 was prepared. Human autotaxin enzyme (purchased from R&D System) was diluted with Solution B, and 2.5 μL of which was added to a solution of test compound in DMSO. Furthermore, 2.5 μl of 200 μM 18:0 Lyso PC (purchased from Avanti Polar Lipids) in Solution B was added and allowed to react at room temperature for 2 hours. After completion of the reaction, 15 μL of the coline assay reagent (100 mM Tris-HCl buffer (pH7.5), 5 mM MgCl2, 77 μg/mL choline oxidase, 10 μg/mL peroxidase, 25 μM 10-acetyl-3,7-dihydroxyphenoxazine and excess autotaxin inhibitor) was added and allowed to react at room temperature for 20 minutes. The fluorescent dye Resorufin, which was produced by the reaction, was detected. The fluorescence was detected using ViewLux (PerkinElmer, Inc.) with an excitation wavelength of 531 nm and a fluorescence wavelength of 598 nm.
# The percent inhibition of the test compound was calculated by assuming the sample with no test compound as 0% inhibition and the sample with no enzyme as 100% inhibition, and the percent inhibitions at different concentrations of the test compound were plotted to obtain a concentration-dependent curve.
row,IC50 [nM],SMILES
1,10 to 100,CCCCCn1c(N2CCC[C@H]2C(=O)NCCCCN2CCN(C)CC2)cc(=O)n2cc(-c3ccc(Cl)cc3)nc12 [Compound 652]
2,10 to 100,CCCCCn1c(N2CCC[C@H]2C(=O)N[C@@H]2CCNC2=O)cc(=O)n2cc(-c3ccc(Cl)cc3)nc12 [Compound 702]
3,100 to 1000,CCCCCn1c(OC2CCNCC2)cc(=O)n2cc(-c3ccc(Cl)cc3)nc12 [Compound 538]
4,10 to 100,CCCCCn1c(-c2ccc(C(=O)Nc3ccncc3)cc2)cc(=O)n2cc(-c3ccc(Cl)cc3)nc12 [Compound 466]
5,100 to 1000,CCCCCn1c(N2CCN(C(=O)c3ccc([N+](=O)[O-])cc3)CC2)cc(=O)n2cc(-c3ccc(Cl)cc3)nc12 [Compound 292]
6,10 to 100,CCCCCn1c(O[C@H]2CCN(CC(=O)OC(C)(C)C)C2)cc(=O)n2cc(-c3ccc(Cl)cc3)nc12 [Compound 573]
7,10 to 100,CCCCCn1c(-c2ccc(C(=O)NCCOCCO)cc2)cc(=O)n2cc(-c3ccc(Cl)cc3)nc12 [Compound 480]
8,100 to 1000,CCCCCn1c(-c2ccc(C(=O)NCc3ccc([N+](=O)[O-])cc3)cc2)cc(=O)n2cc(-c3ccc(Cl)cc3)nc12 [Compound 518]
9,100 to 1000,CCCCCn1c(-c2ccnc(OC)c2)cc(=O)n2cc(-c3ccc(Cl)cc3)nc12 [Compound 460]
10,10 to 100,CCCCCn1c(-c2ccc(C(=O)NCCO)cc2)cc(=O)n2cc(-c3ccc(Cl)cc3)nc12 [Compound 390]
11,< 10,CCCCCn1c(-c2ccc(C(=O)NCCCn3ccnc3)cc2)cc(=O)n2cc(-c3ccc(Cl)cc3)nc12 [Compound 505]
12,10 to 100,"CCCCCn1c(-c2ccc(C(=O)O)cc2)cc(=O)n2cc(-c3ccc(Cl)cc3)nc12 [Compound 362, 4-(2-(4-chlorophenyl)-5-oxo-8-pentyl-5,8-dihydroimidazo[1,2-a]pyrimidin-7-yl)benzoic acid]"
13,< 10,CCCCCn1c(N2CCC[C@H]2C(=O)N[C@@H](Cc2cccc3ccccc23)C(=O)O)cc(=O)n2cc(-c3ccc(Cl)cc3)nc12 [Compound 724]
14,< 10,CCCCCn1c(N2CCC[C@H]2C(=O)N(CC(=O)O)Cc2ccccc2)cc(=O)n2cc(-c3ccc(Cl)cc3)nc12 [Compound 736]
15,10 to 100,CCCCCn1c(N2C[C@@H](F)C[C@H]2C(=O)NC(C)(C)CC(=O)OCC)cc(=O)n2cc(-c3ccc(Cl)cc3)nc12 [Compound 596]
16,> 1000,CCCCCn1c(/N=C(\C)OCCC)cc(=O)n2cc(-c3ccc(Cl)cc3)nc12 [Compound 561]
17,100 to 1000,CCCCCn1c(N2CCC[C@H]2C(=O)N[C@@H]2CCCNC2=O)cc(=O)n2cc(-c3ccc(Cl)cc3)nc12 [Compound 711]

row,IC50 [nM],SMILES
1,100 to 1000,CCCCCn1c(N2CCN(C(=O)OC(C)(C)C)C(C(=O)O)C2)cc(=O)n2cc(-c3ccc(Cl)cc3)nc12 (stereo not shown) [Compound 639]
2,10 to 100,CCCCCn1c(N(C)CC(=O)NCC(=O)O)cc(=O)n2cc(-c3ccc(Cl)cc3)nc12 [Compound 609]
3,100 to 1000,Cn1c(N2CCC[C@H]2C(=O)N[C@@H](Cc2ccccc2)C(=O)O)cc(=O)n2cc(-c3ccc(Cl)cc3)nc12 [Compound 767]
4,10 to 100,CCCCCn1c(-c2ccc(C(=O)NC3CCS(=O)(=O)CC3)cc2)cc(=O)n2cc(-c3ccc(Cl)cc3)nc12 [Compound 493]
5,100 to 1000,CCCCCn1c(-c2ccc(C(=O)OCC)cc2)cc(=O)n2cc(-c3ccc(Cl)cc3)nc12 [Compound 453]
6,10 to 100,CCCCCn1c(N2CCNC[C@H]2C(=O)NCCC(=O)O)cc(=O)n2cc(-c3ccc(Cl)cc3)nc12 [Compound 664]
7,10 to 100,CCCCCn1c(N2C[C@H](O)C[C@H]2C(=O)NCCC(=O)OCC)cc(=O)n2cc(-c3ccc(Cl)cc3)nc12 [Compound 593]
8,< 10,CCCCCn1c(N2CCC[C@H](C(=O)O)C2)cc(=O)n2cc(-c3ccc(Cl)cc3)nc12 [Compound 600]
9,100 to 1000,CCCCCn1c(N2CCC(NS(C)(=O)=O)CC2)cc(=O)n2cc(-c3ccc(Cl)cc3)nc12 [Compound 298]
10,100 to 1000,CCCCCn1c(N2CCC[C@H]2C(=O)NCCCCN(C)C)cc(=O)n2cc(-c3ccc(Cl)cc3)nc12 [Compound 656]
11,10 to 100,O=C(O)CNC(=O)[C@@H]1CCCN1c1cc(=O)n2cc(-c3ccc(Cl)cc3)nc2n1Cc1ccccc1 [Compound 744]
12,10 to 100,CCCCCn1c(-c2ccc(C(=O)N3CCN(CCOC)CC3)cc2)cc(=O)n2cc(-c3ccc(Cl)cc3)nc12 [Compound 485]
13,10 to 100,CCCCCn1c(N2C[C@H](F)C[C@H]2C(=O)NCCC(=O)O)cc(=O)n2cc(-c3ccc(Cl)cc3)nc12 [Compound 579]
14,100 to 1000,CCCCCn1c(N2CCC[C@H]2C(=O)Nc2ccccc2)cc(=O)n2cc(-c3ccc(Cl)cc3)nc12 [Compound 318]
15,10 to 100,CCCCCn1c(-c2cccc(C(=O)NCCOC)c2)cc(=O)n2cc(-c3ccc(Cl)cc3)nc12 [Compound 436]
16,< 10,CCCCCn1c(N2CCC[C@H]2C(=O)N[C@@H](CCc2ccccc2)C(=O)O)cc(=O)n2cc(-c3ccc(Cl)cc3)nc12 [Compound 735]
17,10 to 100,CCCCCn1c(-c2ccc(C(=O)NCCNC(C)=O)cc2)cc(=O)n2cc(-c3ccc(Cl)cc3)nc12 [Compound 470]

row,SMILES,IC50 [nM]
1,CCCCCn1c(-c2ccc(C(=O)NC3CN4CCC3CC4)cc2)cc(=O)n2cc(-c3ccc(Cl)cc3)nc12 (stereo not shown) [Compound 510],< 10

# Same assay, conditions: Assay Method C, human autotaxin, 18:0 Lyso PC substrate; read-out: Inhibitory Activity
row,IC50 [nM],SMILES
1,> 1000,Cn1c(N2C[C@H](O)C[C@H]2C(=O)NC(C)(C)C(=O)O)cc(=O)n2cc(-c3ccc(Cl)cc3)nc12 [Compound 781]
2,> 1000,O=C(Cc1cn(CCCC(F)(F)F)c2nc(-c3ccc(Cl)cc3)cn2c1=O)N[C@@H](CO)Cc1ccccc1 [Compound 848]
3,> 1000,CS(=O)(=O)CCOCCNC(=O)Cc1cn(CCCC(F)(F)F)c2nc(-c3ccc(Cl)cc3)cn2c1=O [Compound 864]
4,100 to 1000,CCCCCn1c(N2CCC[C@H]2C(=O)Nc2ccc(OC)c(O)c2)cc(=O)n2cc(-c3ccc(Cl)cc3)nc12 [Compound 798]
5,100 to 1000,CC(C)(C)OC(=O)NCCNC(=O)Cc1cn(CCCC(F)(F)F)c2nc(-c3ccc(Cl)cc3)cn2c1=O [Compound 840]
6,> 1000,NC(=O)C1CCN(C(=O)Cc2cn(CCCC(F)(F)F)c3nc(-c4ccc(Cl)cc4)cn3c2=O)CC1 [Compound 837]
7,10 to 100,CC1CCCCN1C(=O)Cc1cn(CCCC(F)(F)F)c2nc(-c3ccc(Cl)cc3)cn2c1=O (stereo not shown) [Compound 836]
8,< 10,CCCCCn1c(N2CCC[C@H]2C(=O)NC(C(=O)O)C(F)(F)F)cc(=O)n2cc(-c3ccc(Cl)cc3)nc12 (stereo partly shown) [Compound 815]
9,> 1000,CC(=O)CNC(=O)Cc1cn(CCCC(F)(F)F)c2nc(-c3ccc(Cl)cc3)cn2c1=O [Compound 856]
10,100 to 1000,O=C1CCN(C(=O)Cc2cn(CCCC(F)(F)F)c3nc(-c4ccc(Cl)cc4)cn3c2=O)C1 [Compound 860]
11,10 to 100,CCCCCn1c(N2CCC[C@H]2C(=O)NC(C(N)=O)c2ccccc2)cc(=O)n2cc(-c3ccc(Cl)cc3)nc12 (stereo partly shown) [Compound 789]
12,100 to 1000,CCCCCn1c(N2CCC[C@H]2C(=O)Oc2cc(N)ccc2OC)cc(=O)n2cc(-c3ccc(Cl)cc3)nc12 [Compound 801]
13,> 1000,N#CC(NC(=O)Cc1cn(CCCC(F)(F)F)c2nc(-c3ccc(Cl)cc3)cn2c1=O)C(N)=O (stereo not shown) [Compound 859]

# Same assay, conditions: Assay Method: Method C (Test Example 3); read-out: Inhibitory Activity (Enzyme Inhibitory Activity, IC50)
row,IC50 [nM],SMILES
1,100 to 1000,Cc1cc(=O)n2cc(-c3ccc(Cl)cc3)nc2n1CCCCC#N [Compound 63]

# From US20160002247A1, “8-SUBSTITUTED IMIDAZOPYRIMIDINONE DERIVATIVE HAVING AUTOTAXIN INHIBITORY ACTIVITY” (THE UNIVERSITY OF TOKYO, priority 2013, published 2016)
